Peptide text beside a SMILES is read from it. * marks the point of attachment. Dansyl = CN(C)c1cccc2c(S(=O)(=O)*)cccc12
Key:
[1] = tested on: P100 membrane fraction derived from Caco-2 cells; experiment: GST-PAX2 peptides relative binding to P100 fractions; conditions: 20 μg/ml; binding to plastic subtracted; GST-HAX42 = 1.00
Experimental: (§1) The peptides and proteins were analyzed by a dansylated peptide ELISA method in which 96 well plates were coated overnight at 4° C. with 100 μl/well coating protein (normally 100 μg/ml P100 membrane fraction) in 0.05M carbonate buffer pH9.6. Nonspecific binding was blocked using 200 μl/well, 2% Marvel/PBS for 2 hours at 37° C. prior to incubation with dansylated peptides. The plates were washed three times with PBS/0.05% Tween 20 and after each subsequent incubation step. […] A buffer blank control was included to ensure that background binding to plastic was not due to the antibodies used in the assay system. […] The plates were then incubated with an anti-mouse λ-HRP conjugated antibody (Southern Biotech 1060-05) at a 1:10,000 dilution in blocking solution, 100 μl/well for 1 hour at room temperature. Plates were developed using 75 μl/well Bionostics TMB substrate and incubated for approximately 10 minutes. The developing reaction was stopped using Bionostics Red Stop solution (25 μl/well), and the optical density of the plates was read at 650 nm.
After subtraction of the GST-peptide binding to plastic from P100 binding values, the binding of GST-PAX2 peptides were represented as a ratio of GST-HAX42 binding to P100, which was given the arbitrary value of 1.00. The following ratios were determined from binding to P100 of GST-peptides at a peptide concentration of 20 μg/ml. Bold denotes positive binding to the P100 membrane fraction.

[2] = tested on: P100 membrane fractions derived from Caco-2 cells; experiment: Dansylated peptide ELISA on P100: PAX2 and HAX42 peptides relative binding; conditions: ratio to ZElan021 (HAX42 = 1.00)
[3] = tested on: P100 membrane fractions derived from Caco-2 cells; experiment: as above; conditions: PAX2 peptides, ratio to ZElan021 (HAX42 = 1.00); for Binding value at 20 μg/ml: first 20 μg/ml column
Experimental: as §1

BSA = BSA (Bos taurus, UniProt P02769); experiment: Phage ELISA on BSA (background control protein); assay type: binding
Sequence of BSA (P02769 25-607): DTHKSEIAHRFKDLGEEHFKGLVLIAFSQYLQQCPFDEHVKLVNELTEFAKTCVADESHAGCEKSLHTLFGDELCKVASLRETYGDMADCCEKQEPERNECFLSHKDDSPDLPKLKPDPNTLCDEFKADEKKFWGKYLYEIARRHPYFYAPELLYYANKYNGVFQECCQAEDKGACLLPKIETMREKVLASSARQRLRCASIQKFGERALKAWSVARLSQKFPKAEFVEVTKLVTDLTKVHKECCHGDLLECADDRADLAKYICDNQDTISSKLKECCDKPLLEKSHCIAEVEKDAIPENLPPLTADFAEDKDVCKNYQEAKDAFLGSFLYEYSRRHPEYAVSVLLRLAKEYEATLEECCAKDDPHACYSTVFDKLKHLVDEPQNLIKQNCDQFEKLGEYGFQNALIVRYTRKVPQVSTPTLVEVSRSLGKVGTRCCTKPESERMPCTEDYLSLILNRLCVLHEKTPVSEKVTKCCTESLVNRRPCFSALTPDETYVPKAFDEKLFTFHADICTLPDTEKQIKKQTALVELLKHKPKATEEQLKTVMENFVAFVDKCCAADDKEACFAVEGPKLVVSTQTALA
Experimental: 96 well plates were coated overnight with GIT receptor, BSA and, optionally, IDE (insulin degrading enzyme, an irrelevant His-fusion protein) or hTF. The plates were blocked for one hour with 0.5% BSA-PBS. After clarification, the amplified phage were diluted 1:100 in 1% BSA plus 0.05% Tween 20 in PBS and added to the plates. Following incubation of the plates on a rotator for 1 to 2 hours, the plates were washed 5 times with 1% BSA plus 0.05% Tween 20 in PBS. Dilute anti-M13-HRP conjugate (anti-M13 antibody linked to horse radish peroxidase (HRP)) was added to all the wells and the plate was incubated for one hour on a rotator. After the plates were washed 5 times, as described above, TMB substrate was added to the wells. The plates were read at 650 nm absorbance.

[4] = Drug potency, peptide loading and size of coacervated particles; assay type: physicochemical; conditions: formulation 1 particles (coacervation), blend; for Insulin (insulin potency): coated with the named peptide; for Peptide (level of peptide coated onto the particles): measured by fluorescence

Molecule	Value: binding to P100 as a ratio of GST-HAX42 binding [1]	Binding value at 50 μg/ml (Jackson Ab) [2]	Binding value at 50 μg/ml (Southern Ab) [3]	Binding value at 20 μg/ml [3]	Binding value at 50 μg/ml ([3]; first 50 μg/ml column)	Binding value at 50 μg/ml ([3]; second 50 μg/ml column)	also measured
gst-STPPSREAYSRPYSVDSDSD [GST-104]	0.01	–	–	–	–	–	–
CC(C)C[C@H](NC(=O)[C@H](C)NC(=O)[C@H](CCCNC(=N)N)NC(=O)[C@H](CC(N)=O)NC(=O)[C@H](Cc1c[nH]cn1)NC(=O)[C@H](CO)NC(=O)[C@H](CO)NC(=O)[C@@H](N)CCCCNS(=O)(=O)c1cccc2c(N(C)C)cccc12)C(=O)N[C@@H](CCCNC(=N)N)C(=O)N[C@H](C(=O)N[C@@H](CCCNC(=N)N)C(N)=O)[C@@H](C)O [ZElan078] (H-K(Dansyl)SSHNRALRTR-NH2)	–	0.68	0.47	0.11	0.87	0.69	–
gst-TNAKHSSHN [GST-113]	0.26	–	–	–	–	–	–
CC(C)C[C@H](NC(=O)[C@H](CCCNC(=N)N)NC(=O)[C@H](CCCNC(=N)N)NC(=O)[C@H](CC(N)=O)NC(=O)[C@H](C)NC(=O)[C@H](CO)NC(=O)[C@H](CO)NC(=O)[C@@H](N)CCCCNS(=O)(=O)c1cccc2c(N(C)C)cccc12)C(=O)N[C@@H](CCCNC(=N)N)C(=O)N[C@H](C(=O)N[C@@H](CCCNC(=N)N)C(N)=O)[C@@H](C)O [ZElan075] (H-K(Dansyl)SSANRRLRTR-NH2)	–	0.47	0.32	0.13	0.52	0.38	–
gst-SRPYSVDSDSDTNAKHSSHNR [GST-105]	−0.08	–	–	–	–	–	–
glutathione S-transferase [GST, reference compound]	0.48	–	–	–	–	–	–
C[C@H](NC(=O)[C@H](CCCNC(=N)N)NC(=O)[C@H](CCCNC(=N)N)NC(=O)[C@H](CC(N)=O)NC(=O)[C@H](Cc1c[nH]cn1)NC(=O)[C@H](CO)NC(=O)[C@H](CO)NC(=O)[C@@H](N)CCCCNS(=O)(=O)c1cccc2c(N(C)C)cccc12)C(=O)N[C@@H](CCCNC(=N)N)C(=O)N[C@H](C(=O)N[C@@H](CCCNC(=N)N)C(N)=O)[C@@H](C)O [ZElan079] (H-K(Dansyl)SSHNRRARTR-NH2)	–	0.83	0.53	0.31	0.97	0.68	–
CC(C)C[C@H](NC(=O)[C@H](CCCNC(=N)N)NC(=O)[C@H](CCCNC(=N)N)NC(=O)[C@H](C)NC(=O)[C@H](Cc1c[nH]cn1)NC(=O)[C@H](CO)NC(=O)[C@H](CO)NC(=O)[C@@H](N)CCCCNS(=O)(=O)c1cccc2c(N(C)C)cccc12)C(=O)N[C@@H](CCCNC(=N)N)C(=O)N[C@H](C(=O)N[C@@H](CCCNC(=N)N)C(N)=O)[C@@H](C)O [ZElan076] (H-K(Dansyl)SSHARRLRTR-NH2)	–	0.60	0.42	0.08	1.00	0.41	–
RVGQCTDSDVRRPWARSCAHQGCGAGTRNSHGCITRPLRQASAH [SNi10]	–	–	–	–	–	–	BSA (BSA; Table 1, phage panned on hSI): 0.051 OD; Insulin (insulin potency) [4]: 59.5 mg/g; Peptide (level of peptide coated onto the particles) [4]: 1.75 µL/mg
CC(C)C[C@H](NC(=O)[C@H](CCCNC(=N)N)NC(=O)[C@H](CCCNC(=N)N)NC(=O)[C@H](CC(N)=O)NC(=O)[C@H](Cc1c[nH]cn1)NC(=O)[C@H](CO)NC(=O)[C@H](CO)NC(=O)[C@@H](N)CCCCNS(=O)(=O)c1cccc2c(N(C)C)cccc12)C(=O)N[C@@H](C)C(=O)N[C@H](C(=O)N[C@@H](CCCNC(=N)N)C(N)=O)[C@@H](C)O [ZElan080] (H-K(Dansyl)SSHNRRLATR-NH2)	–	0.67	0.38	0.23	0.84	0.45	–
CC(C)C[C@H](NC(=O)[C@H](CCCNC(=N)N)NC(=O)[C@H](CCCNC(=N)N)NC(=O)[C@H](CC(N)=O)NC(=O)[C@H](Cc1c[nH]cn1)NC(=O)[C@H](CO)NC(=O)[C@H](C)NC(=O)[C@@H](N)CCCCNS(=O)(=O)c1cccc2c(N(C)C)cccc12)C(=O)N[C@@H](CCCNC(=N)N)C(=O)N[C@H](C(=O)N[C@@H](CCCNC(=N)N)C(N)=O)[C@@H](C)O [ZElan073] (H-K(Dansyl)ASHNRRLRTR-NH2)	–	0.66	0.49	0.07	−0.11	0.49	–
CC(C)C[C@H](NC(=O)[C@H](CCCNC(=N)N)NC(=O)[C@H](CCCNC(=N)N)NC(=O)[C@H](CC(N)=O)NC(=O)[C@H](Cc1c[nH]cn1)NC(=O)[C@H](C)NC(=O)[C@H](CO)NC(=O)[C@@H](N)CCCCNS(=O)(=O)c1cccc2c(N(C)C)cccc12)C(=O)N[C@@H](CCCNC(=N)N)C(=O)N[C@H](C(=O)N[C@@H](CCCNC(=N)N)C(N)=O)[C@@H](C)O [ZElan074] (H-K(Dansyl)SAHNRRLRTR-NH2)	–	0.71	0.48	0.06	0.82	0.52	–
CC(C)C[C@H](NC(=O)[C@H](CCCNC(=N)N)NC(=O)[C@H](C)NC(=O)[C@H](CC(N)=O)NC(=O)[C@H](Cc1c[nH]cn1)NC(=O)[C@H](CO)NC(=O)[C@H](CO)NC(=O)[C@@H](N)CCCCNS(=O)(=O)c1cccc2c(N(C)C)cccc12)C(=O)N[C@@H](CCCNC(=N)N)C(=O)N[C@H](C(=O)N[C@@H](CCCNC(=N)N)C(N)=O)[C@@H](C)O [ZElan077] (H-K(Dansyl)SSHNARLRTR-NH2)	–	0.73	0.52	0.20	0.76	0.54	–
gst-RRLRTRSRPN [GST-115]	0.36	–	–	–	–	–	–
RYKHDIGCDAGVDKKSSSVRGGCGAHSSPPRAGRGPRGTMVSRL [DCX8]	–	–	–	–	–	–	BSA (BSA; Table 3): 0.063 OD; Insulin (insulin potency) [4]: 59.1 mg/g; Peptide (level of peptide coated onto the particles) [4]: 1.87 µL/mg
gst-SSHNRRLRTR [GST-114]	0.17	–	–	–	–	–	–
